Paper PMC9791135, “A penetratin-derived peptide reduces the membrane permeabilization and cell toxicity of α-synuclein oligomers” (The Journal of Biological Chemistry, 2022)

Key:
α-syn [1] = molecular target: T1, α-syn (Homo sapiens, UniProt P37840); assay: ThT fluorescence assay of unseeded α-syn fibrillation in the presence of peptides; type: biochemical; conditions: 1 mg/ml α-syn, 0–0.5 mg/ml peptide, 48 h
T1 construct: made in house; host or cells: Escherichia coli BL21 (DE3), plasmid pET11-D
Experimental: To test the effects of these selected nine peptides on the aggregation of α-syn, we performed a thioflavin T (ThT) fluorescence assay in the presence of 1 mg/ml α-syn and 0 to 0.5 mg/ml peptide for 48 h (raw data in Fig. S3). Furthermore, the peptides alone were monitored for self-fibrillation. […] High concentrations of p222, p194, and p249 led to a decline in ThT fluorescence after reaching a plateau, possibly because of the formation of insoluble amorphous species. We also carried out seeding experiments by adding 5% sonicated preaggregated α-syn fibrils to the ThT assay.
About 150 μl of 70 μM (1 mg/ml) α-syn, 40 μM ThT, and varying amounts of peptides (0, 0.06, 0.125, 0. 25, 0.375, and 0.5 mg/ml) were transferred in triplicates to a black COSTAR 96-well clear bottom plate (Nunc, Thermo Fisher Scientific), and including a 3 mm diameter glass bead (Glaswarenfabrik Karl Hecht GmbH & Co KG) per well to increase reproducibility ([100]). The plate was sealed with Crystal Clear sealing tape (Hampton Research) and incubated at 37 °C in a CLARIOstar Plus (BMG LABTECH) fluorescence plate reader. Fibrillation was carried out for ∼48 h with 300 rpm double orbital shaking between the readings for 372 s (excitation/emission: 448∕485 nm). Seeding experiments were performed using the same setting as for the fibrillation assay as described ([39]). Briefly, the experiments were done in triplicates in the presence of 0.05 mg/ml of α-syn fibril seeds (5% seeding) and 1 mg/ml of peptides in a solution of 1 mg/ml α-syn in 96-well plates.

α-syn [2] = molecular target: T1, α-syn; assay: SDS-PAGE of soluble α-syn left in supernatant after fibrillation; type: biochemical; conditions: SDS-PAGE after centrifugation of fibrillated samples
Experimental: Overall, there was a reasonable but not perfect correspondence between SDS-PAGE and ThT data.
To determine the amount of soluble α-syn, fibrillated samples were centrifuged (13,000 rpm, 15 min) and the supernatants were loaded on Bis–Tris 15% acrylamide gel with prestained protein ladder (Thermo Scientific) and run in a Bis–Tris running buffer at 150 V for 70 min, stained for 20 min in Coomassie brilliant blue (1.2 mM Coomassie brilliant blue, 5% ethanol, and 7% acetic acid), and destained overnight in a destaining solution (5% ethanol and 5% acetic acid). Gel bands were quantified using ImageJ.

α-syn [3] = molecular target: T1, α-syn; assay: ATR–FTIR of fibrillated α-syn–peptide samples; type: biochemical; conditions: for ATR–FTIR (amyloid structures): fibrillated samples after washing, versus α-syn alone; for Amount of amyloid structures (ATR–FTIR), in words: fibrillated α-syn samples in the presence of peptides
From the text: (§1) To analyze the secondary structure of the final aggregates, we recorded far-UV CD and attenuated total reflectance (ATR)–FTIR spectra for fibrillated samples after washing to remove free α-syn and peptides. […] Overall, as the concentration of peptides increases, the intensity of signal at 218 nm decreases (Fig. 4A). We observed that α-syn fibrils formed in the presence of p194, p222, p235, and p249 precipitated rapidly after mixing with these peptides. This likely gives rise to light scattering, which reduces CD signals. To overcome these artifacts, we turned to ATR–FTIR spectroscopy, which is not sensitive to scattering. […] Both far-UV CD and ATR–FTIR spectroscopy confirm extensive β-sheet structure. However, in the presence of peptides, some structural changes were observed as reflected by the decrease in the amyloid cross β-sheet structure at ∼1629 cm^−1 and increases in the random and coil structures (∼1656 and ∼1676 cm^−1, respectively) (Table 2). […] Taking all together, ATR–FTIR data are in reasonable agreement with far-UV CD.
The samples prepared in the CD section were also used to measure FTIR spectra on a Tensor 27 FTIR spectrophotometer (Bruker). About 2 μl α-syn fibrils were dried on the ATR crystal with a gentle stream of nitrogen gas. Spectra were accumulations of 68 scans in the 4000 to 1000 cm^−1 range. Baseline correlation, second derivative, and atmospheric compensation were performed with OPUS 5.5 software (Bruker, Germany). Signals in the amide I region (∼1550–1700 cm^−1) were smoothed and deconvoluted with PeakFit, version 4.12 software (ِSystat Software Inc) using Lorentzian fitting.

α-syn [4] = molecular target: T1, α-syn; assay: Far-UV CD of fibrillated α-syn–peptide samples; type: biochemical; conditions: fibrillated samples after washing, signal at 218 nm; versus α-syn alone
From the text: as §1
To remove free α-syn and peptides, fibrillated samples were centrifuged (13,000 rpm, 15 min). This leaves monomeric α-syn plus unbound and free peptides in the supernatant. The supernatant was discarded, and the pellet was washed two times in the same volume of PBS buffer, pH 7.4, to ensure complete removal of monomeric α-syn and free peptides. Far-UV CD spectra were recorded at 25 °C on a Chirascan CD Spectrophotometer (Applied Photophysics) using a 0.1 mm quartz cuvette in the wavelength range of 200 to 260 nm with 1 nm bandwidth and three accumulations. The buffer spectrum was subtracted, and the results were expressed as mean residue ellipticity [θ] (deg cm^2 dmol^−1).

α-syn [5] = molecular target: T1, α-syn; assay: TEM of α-syn aggregates formed with peptides; type: biochemical; conditions: α-syn incubated in the presence of peptide
Experimental: Five microliters of each fibril-containing solution were applied to 400-mesh carbon-coated and glow-discharged nickel grids for 30 s, and blotted with filter paper to remove excess sample. The grids were washed with one drop of double distilled water and then stained with 3 μl of 1% uranyl formate for 15 s. Excess stain was removed by blotting paper This step was repeated two more times. Finally, the grids were left to air dry and viewed on a Tecnai G2 Spirit (FEI Company) operating at 60 kV, and images were taken using a TemCam F416 camera (TVIPS).

[6] = Calcein release assay, substance alone; conditions: for Permeabilization of lipid vesicles by peptide alone: calcein-loaded DOPG vesicles, 10^−6 to 10^−1 mg/ml peptide, 37 °C, triplicate
Experimental: (§2) αSOs show cytotoxic properties, which have been attributed to their membrane-disrupting ability ([69]). To examine the effect of peptides on membrane permeabilization by αSOs, we used a simple calcein release assay. αSOs, peptides, and aSO–peptide mixtures at 10^−6 to 10^−1 mg/ml peptide were added to calcein-loaded DOPG vesicle, and the extent of calcein release was monitored for 30 min by the increase in fluorescence as calcein leaks out upon membrane permeabilization, leading to dilution and the loss of self-quenching. The time-dependent calcein release data from DOPG vesicles ([70], [71]) in the presence of peptides, αSOs, and αSO–peptides are shown in Figs. S9 and S10. In order to allow easy comparison of all peptides, the calcein release versus concentration (peptides and αSOs) were plotted at the plateau point of release (Fig. 5, A–C). […] Figure 5D compares calcein release percentages of data represented in Figure 5, A and B at peptide concentrations between 0.001 and 0.1 mg/ml, where we see the largest extent of calcein release in general.
(§3) Calcein-filled vesicles of DOPG were prepared as described before ([38]). Briefly, DOPG was dissolved in PBS to […], in the presence of calcein at self-quenching concentrations (70 mM) and subjected to 10 freeze–thaw cycles between liquid nitrogen and a 50 °C water bath. After 21 times extrusion through a 100 nm filter, free calcein was separated from vesicles with a PD-10 desalting column (GE Healthcare). Vesicles were stored at 4 °C and used for calcein release assays within 24 h.
(§4) Calcein release was measured by mixing peptides and/or αSOs at a final concentration of 10^−6 to 10^−1 mg/ml and 5.2 μg/ml, respectively, in 148 μl with 2 μl of calcein vesicles, and were then loaded onto a 96-well plate (Nunc, Thermo Fischer Scientific) in triplicate. The plate was sealed with Crystal clear sealing tape (Hampton Research), and fluorescence was measured (excitation: 485 nm and emission: 520 nm) for 1 h at 37 °C every 2 min with a 2 s autoshake before each reading on a fluorescence plate reader (Tecan). Finally, 2 μl Triton X-100 (0.2% [v/v]) was added to lyse vesicles, and the maximal fluorescence signal was measured for 20 min under the same reading condition. Background fluorescence was subtracted, and the average signal of calcein release before addition of Triton X-100 (F), after treatment with Triton X-100 (Ft) and for the buffer control (F0) were determined, and calcein release percentage was calculated as follow (Equation 1):(1) CalceinRelease%(CR%)=(F−F0)/(Ft−F0)

αSOs = molecular target: T2, αSOs (Homo sapiens, UniProt P37840); assay: Calcein release assay, αSOs together with peptides; type: biochemical; conditions: αSOs at calcein^50% (5.2 μg/ml)
T2 construct: made in house; host or cells: Escherichia coli BL21 (DE3); oligomers formed by shaking the monomer and isolated by SEC (Superose 6)
Experimental: as §2, §3, §4

Aβ = conditions: cited from earlier work
From the text: Penetratin is a widely used CPP. Translocation of full-length and N-terminal truncated ([82]) penetratin has been observed in all cell types, and it is also able to cross the blood–brain barrier (BBB) ([83]). Its mechanism of translocation in live cells is complex and involves structural changes from random coil to α-helix ([84]) and transient formation of tubes or inverted micelles in the membrane that entrap the peptide in its interior. […]. The presence of Trp and net positively charged amino acid residues are important for formation of inverted ...

Row | Substance | Effect on α-syn aggregation (ThT), in words (α-syn [1]) | Amount of soluble α-syn monomer left in the supernatant, in words (α-syn [2]) | ATR–FTIR (amyloid structures) (α-syn [3]) | Amount of amyloid structures (ATR–FTIR), in words (α-syn [3]) | Far-UV CD (β-sheet structures) (α-syn [4]) | Morphology of α-syn aggregates (TEM), in words (α-syn [5]) | Permeabilization of lipid vesicles by peptide alone [6] | Effect on vesicle permeabilization by αSOs (αSOs; peptide 10^−6 to 10^−1 mg/ml) | ThT signal end level (α-syn [1]; unseeded ThT, 37 °C, versus α-syn alone) | Peptide concentration from which membrane toxicity is shown ([6]; peptide alone, calcein-filled DOPG LUVs, tested range 10^−1–10^−6 mg/ml) | Effect on vesicle permeabilization by αSOs (αSOs; peptide 0.1 mg/ml) | Inhibition of amyloid aggregate formation (Aβ fibrillation) (Aβ)
1 | MKGLSKAKEGVVAA [p5] | did not change the lag phase duration | do not affect the amount of monomer left in the supernatant | ↓ amyl | slightly decreased the amount of amyloid | ↓β | did not cause any significant change in morphology | did not permeabilize lipid vesicles | failed to affect vesicle permeabilization by αSOs |  |  |  | 
2 | SASDSRTFKSSGG [p162] | did not change the lag phase duration | do not affect the amount of monomer left in the supernatant |  | slightly decreased the amount of amyloid | ↓β | did not cause any significant change in morphology | did not permeabilize lipid vesicles | failed to affect vesicle permeabilization by αSOs |  |  |  | 
3 | KEGVVAAAEKTKQG [p12] | did not change the lag phase duration | do not affect the amount of monomer left in the supernatant | ↓ amyl | did not show significant changes in FTIR spectra | ↓β | did not cause any significant change in morphology | did not permeabilize lipid vesicles | failed to affect vesicle permeabilization by αSOs |  |  |  | 
4 | RQIKIWFQARRMKWKK [p194, Ala scan variant of penetratin] | inhibitory effect |  | ↓↓↓ amyl | decreased | ↓↓↓β | nonfibrillar (amorphous) accumulations |  |  | ↓↓ | > 10^−2 mg/ml | increased vesicle permeabilization by αSOs | 
5 | RQIKIWFQNRRMLWLXaa [pAntp] |  |  |  |  |  |  |  |  |  |  |  | particularly effective inhibitors
6 | RQILIWFQNRRMLWLL [pAntp-BSB1] |  |  |  |  |  |  |  |  |  |  |  | particularly effective inhibitors
